According to PMC9271792 (Frontiers in Endocrinology, 2022):
“Also recorded” adds a separate entry of the source.

Tests used:
IGF-1R [1] = target: T1, IGF-1R (Homo sapiens, UniProt P08069); settings: ref [9]; cited from earlier work
T1 construct: expressed in transfected cells; host or cells: P6 cells (BALB/c3T3 mouse fibroblasts overexpressing human IGF-1R); Triton X-100 lysate captured on anti-IGF-1R antibody 24-31
Source text: (§1) This contrasts with cis-dicarba insulin which wa ...

IR-B = settings: ref [9]; cited from earlier work
Source text: as §1

IR-A = IR-A receptor internalization; format: cell-based, human; settings: 10 nM, 2 hours post-stimulation
Procedure: (§2) All data are the mean ± S.E.M. n = at least 3 independent experiments. Error bars are shown when greater than the size of the symbols.
(§3) Assays were performed in triplicate in at least three independent experiments.

mitogenic signalling = settings: ref [9], [30]; cited from earlier work
[2] = test system: L6 rat skeletal myoblasts overexpressing human IR-A (L6 IR-A cells); test: DNA synthesis assay (EdU incorporation); format: cell-based; settings: 18 h, 0.01 - 300 nM, compared to native insulin
Procedure: as §3

[3] = test system: ERK 1/2 / p90RSK phosphorylation in L6 IR-A cells; test: Western blot time-course, MAPK pathway, L6 IR-A; format: cell-based, rat cells; human IR-A; settings: 10 nM, 0–30 min
Procedure: (§5) R/^-IR-B (80,000 cells/well) or L6 IR-A cells (240,000 cells/well) were seeded in 6-well plates and allowed to grow to confluence (~ 48 hours). Prior to stimulation, cells were serum starved in SFM/1% BSA for 4 h. […] Lysates were scraped from the well, spun at 13,000 rpm for 3 min at 0°C to remove cell debris and stored at -80°C. Lysate protein concentrations were quantified using Bio-Rad DC™ Protein Assay and 20μg of each sample was separated in 10% glycine gels under reducing conditions. Transferred blots were blocked for 1 h at room temperature in TBST containing 3% BSA and probed with primary antibodies (Pathscan Antibody, pAkt(Thr308), pGSK(Ser9), pAS160(Thr642)) in blocking solution (TBST containing 3% BSA) overnight at 4°C. All blots were also probed with anti-β-tubulin as a loading control. Blots were washed six times for 5 min each in TBST then probed with either HRP-conjugated (dose-response) or fluorophore-conjugated (time-course) secondary antibodies for 1 hour at room temperature. The washing was then repeated.
(§6) Dose response blots were developed in ECL reagent according to manufacturer’s instruction and imaged in Fujiflim LAS-4000 Luminescent Image Analyzer. Time course blots were imaged with an Odyssey® CLx Imaging System. All blots were performed at least three times. All data were analysed with LI-COR Image Studio™ software and each band intensity was normalized to tubulin of its respective lane.

IR [4] = settings: ref [9], [30]; cited from earlier work
[5] = test system: Akt / GSK-3β / S6 / AS160 phosphorylation in R^-IR-B cells; test: Western blot dose-response, PI3K/Akt pathway, R-IR-B fibroblasts; format: cell-based, mouse cells; human IR-B; settings: 10 min, significant difference only at 0.1 nM (p* ≤ 0.05 to p** ≤ 0.01)
Procedure: (§7) R/^-IR-B (80,000 cells/well) or L6 IR-A cells (240,000 cells/well) were seeded in 6-well plates and allowed to grow to confluence (~ 48 hours). Prior to stimulation, cells were serum starved in SFM/1% BSA for 4 h. […] Lysates were scraped from the well, spun at 13,000 rpm for 3 min at 0°C to remove cell debris and stored at -80°C. Lysate protein concentrations were quantified using Bio-Rad DC™ Protein Assay and 20μg of each sample was separated in 10% glycine gels under reducing conditions. Transferred blots were blocked for 1 h at room temperature in TBST containing 3% BSA and probed with primary antibodies (Pathscan Antibody, pAkt(Thr308), pGSK(Ser9), pAS160(Thr642)) in blocking solution (TBST containing 3% BSA) overnight at 4°C. […]
(§8) Phosphorylation levels are expressed as percentage of level detected […]
(§9) were determined via 2-way ANOVA (bars above graph); difference comparing each stimulating concentration (pink asterisks) were further analyzed using Holm-Sidak test. ns: non-significant; * (P ≤ 0.05), ** (P ≤ 0.01); *** (P ≤ 0.001); **** (P ≤ 0.0001).

[6] = target: T2, IR-A (phospho-Tyr1150/Tyr1151) (Homo sapiens, UniProt P06213); test: IR-A phosphorylation Tyr1150/Tyr1151 time-course (western blot); format: cell-based; settings: L6 IR-A, 10 nM, 0–10 min
T2 construct: expressed in transfected cells; host or cells: L6 rat skeletal myoblasts over-expressing human IR-A (hIR-A L6), from Novo Nordisk
Source text: as §2

IGF-1R [7] = target: T1, IGF-1R; settings: cis dicarba insulin, footnote b; ref [9]; cited from earlier work
[8] = test system: Akt / GSK-3β / S6 phosphorylation in L6 IR-A cells; test: Western blot time-course, PI3K/Akt pathway, L6 IR-A; format: cell-based, rat cells; human IR-A; settings: 10 nM, 0–30 min, p-Akt Ser473, p-Akt Thr308, p-GSK3β, p-S6
Procedure: as §5, §6

[9] = test system: p52 Shc (phospho-Tyr239/Tyr240) in L6 IR-A cells; test: p52 Shc phosphorylation time-course (western blot); format: cell-based, rat cells; human IR-A; settings: 10 nM
Procedure: (§4) Figure 6 Cis-dicarba analogues are incapable of promoting IR-A internalization due to inability to promote phosphorylation of IR-A, IRS-1 and Shc. […] Data are presented as % of surface receptor/total receptor followed by normalisation with % of surface receptor in SFM at t = 0; i.e. SFM at t = 0 is equivalent to 100%. […] All data are the mean ± S.E.M. n = at least 3 independent experiments. Error bars are shown when greater than the size of the symbols. Statistical significance were determined via one-way repeated measures ANOVA followed by Dunnets multiple test.
R/^-IR-B (80,000 cells/well) or L6 IR-A cells (240,000 cells/well) were seeded in 6-well plates and allowed to grow to confluence (~ 48 hours). Prior to stimulation, cells were serum starved in SFM/1% BSA for 4 h. […] Lysates were scraped from the well, spun at 13,000 rpm for 3 min at 0°C to remove cell debris and stored at -80°C. Lysate protein concentrations were quantified using Bio-Rad DC™ Protein Assay and 20μg of each sample was separated in 10% glycine gels under reducing conditions. […]
Dose response blots were developed in ECL reagent according to manufacturer’s instruction and imaged in Fujiflim LAS-4000 Luminescent Image Analyzer. […] All data were analysed with LI-COR Image Studio™ software and each band intensity was normalized to tubulin of its respective lane.

C57BL6 male mice = test: Insulin tolerance test; format: in vivo, mouse; settings: 0.75 IU/kg ip
[10] = test system: ERK 1 / ERK 2 / p90RSK phosphorylation in R^-IR-B cells; test: Western blot dose-response, MAPK pathway, R-IR-B fibroblasts; format: cell-based, mouse cells; human IR-B; settings: 0.1–100 nM, 10 min, 2-way ANOVA
Procedure: as §7, §8, §9

IR isoform B (IR-B) = target: T3, IR isoform B (IR-B) (Homo sapiens, UniProt P06213); settings: cis dicarba insulin, footnote b, ref [9], cited from earlier work
T3 construct: expressed in transfected cells; host or cells: R-IR-B cells (IGF-1R knockout mouse embryonic fibroblasts over-expressing human IR-B); Triton X-100 lysate captured on anti-IR antibody 83-7

IRS-1 in L6 IR-A cells = test: IRS-1 activation time-course (immunoprecipitation, pTyr20); format: cell-based, rat cells; human IR-A; settings: 10 nM
Procedure: as §4
Activated IRS-1 was determined using immunoprecipitation. Anti-IRS-1 antibody(4ug) was pre incubated with protein G agarose overnight at 4°C before adding to lysates to immunoprecipitate IRS-1 overnight at 4°C. Complexes were washed three times in PBS, boiled under reducing conditions and samples separated on 10% glycine gels. Transferred blots were blocked for 1 h at room temperature in TBST containing 3% BSA and probed with primary antibodies (anti-IRS-1 for total IRS-1 protein, or anti pTyr20 for total phosphorylated protein in immunoprecipitation) in blocking solution (TBST containing 3% BSA) overnight at 4°C. Blots were washed six times for 5 min each in TBST then probed with fluorophore-conjugated secondary antibodies (donkey anti-mouse 680RD and anti- rabbit 800CW) for 1 hour at room temperature. […]

[11] = test system: ERK 1 / ERK 2 / p90RSK phosphorylation in L6 IR-A cells; test: Western blot dose-response, MAPK pathway (ERK1, ERK2, p90RSK), L6 IR-A; format: cell-based, rat cells; human IR-A
Procedure: as §5
(§10) Dose response blots were developed in ECL reagent according to manufacturer’s instruction and imaged in Fujiflim LAS-4000 Luminescent Image Analyzer. […] All blots were performed at least three times. All data were analysed with LI-COR Image Studio™ software and each band intensity was normalized to tubulin of its respective lane.

[12] = test system: Akt / GSK-3β / S6 / AS160 phosphorylation in L6 IR-A cells; test: Western blot dose-response, PI3K/Akt pathway (Akt, GSK-3β, S6, AS160), L6 IR-A; format: cell-based, rat cells; human IR-A
Procedure: as §5, §10

metabolic activity = settings: ref [9], [30]; cited from earlier work
IR [13] = settings: KIRA; compared to insulin; ref [9]; cited from earlier work
Source text: This is similar to the poorly mitogenic S597 peptide, which also promoted slowe ...

NIH3T3-L1 adipocytes = test: Glucose uptake assay (2-deoxyglucose); format: cell-based; settings: paired T-test; n = at least 3
Procedure: NIH3T3-L1 myoblasts (up to passage 20) grown in DMEM supplemented with 10% newborn calf serum, 2mM L-glutamine, 100 U/l penicillin, 100 µg/L streptomycin at 37°C were seeded into 24-well plates at 5 x 10^3 cells/well and grown for 8 days to confluence. They were then differentiated into adipocytes as described in Govers et al. ([51]). After differentiation the NIH3T3-L1 cells express 37,000 IGF-1R and 250,000 IR per cell ([52]). […] Briefly, 3T3-L1 adipocytes were serum starved in SFM/1% BSA for 4 h, washed twice with Krebs-Ringer phosphate buffer (KRP; 12.5mM HEPES, 120mM NaCl, 6mM KCl, 1.2mM MgSO4, 1mM CaCl2, 0.4mM Na2HPO4, 0.6mM Na2HPO4 (pH7.4)) containing 1% BSA and incubated for 15min at 37°C. […] For the final 10 min 2-deoxyglucose (DOG) uptake was initiated by the addition of 50 µM cold deoxyglucose and 1 µCi ^3H –deoxyglucose per well. The assay was terminated by rapidly washing the cells three times with ice-cold KRP buffer. Cells were solubilized in 0.5 M NaOH/0.1% SDS and ^3H content was determined by scintillation counting. Nonspecific 2-DOG uptake was determined in the presence of 50μM cytochalasin B. Assays were performed in triplicate in at least three independent experiments.

[14] = dose-response, compared to insulin

cis-[Δ^4A6,11]-dicarba human insulin [cis dicarba insulin]
binding and activation of IGF-1R (in words) (IGF-1R [1]): equipotent to insulin in both binding and activation of IR-B and IGF-1R | binding and activation of IR-B (in words) (IR-B): equipotent to insulin in both binding and activation of IR-B and IGF-1R | IR-A internalization (in words) (IR-A): significantly impaired ability to promote IR-A internalization, with virtually all receptor remaining on the surface 2 hours post-stimulation; also recorded: ineffective in promoting IR internalisation | mitogenic response (in words) (mitogenic signalling): poor at activating a mitogenic response | DNA synthesis, fold reduction in mitogenic potency vs native insulin [2]: ~ 5 fold | MAPK signalling activation, ERK1/2 and p90RSK (in words) ([3]; compared to parent): lower level of activation of MAPK signalling | ERK 1/2 phosphorylation maximal level (in words) ([3]; compared to parent peptides): never achieved the maximal level attained through stimulation by their corresponding parent peptides | IR binding (in words) (IR [4]): binds the IR with equal affinity to insulin | Akt phosphorylation at Ser473 (in words) [5]: generally similar to their parent peptides | IR-A Tyr1150/Tyr1151 phosphorylation (in words) [6]: much slower to stimulate receptor activation; also recorded: reduced kinetics of activation compared to insulin | IR-A Tyr1150/Tyr1151 phosphorylation, response relative to insulin ([6]; % of that of insulin): ~ 20% | Affinity (% Insulin ± SEM), IGF-1R (IGF-1R [7]): ~100 % Insulin | IC50 (IGF-1R [7]): > 300 nM | kinetics of activation of the PI3K/Akt pathway (in words) [8]: essentially the same | Shc activation (in words) [9]: significantly less potent in activating both IRS-1 and Shc | Shc activation relative to insulin ([9]; 0–10 min, compared to insulin): ~ 30% | blood glucose lowering (in words) (C57BL6 male mice; chow fed mice, non-fasting, 2 hours post-treatment): no statistical difference | blood glucose change, significance vs parent (AUC) (C57BL6 male mice; insulin vs cis-dicarba insulin, glargine vs cis-dicarba glargine, paired T-test, n = 5-6 per group): ns | p-Erk 1 (T202/Y204), overall significance vs parent [10]: * (P ≤ 0.05) | Affinity (% Insulin ± SEM), IR-B (IR isoform B (IR-B); non-statistically significant): 100 % Insulin | IC50 (IR isoform B (IR-B)): 1.07 ± 0.3 nM | IRS-1 activation (in words) (IRS-1 in L6 IR-A cells): significantly less potent in activating both IRS-1 and Shc | IRS-1 activation relative to insulin (IRS-1 in L6 IR-A cells; 0–10 min, compared to insulin): ~ 30% | phosphorylation of ERK 1, ERK 2 and p90RSK (in words) ([11]; 0.1–10 nM, t = 10 min, p* ≤ 0.05 to p**** ≤ 0.0001 vs parent): significantly reduced phosphorylation levels of ERK 1, ERK 2 and p90RSK | p-p90RSK (S380), overall significance vs parent ([11]; L6 IR-A, 0.1–100 nM, 10 min, 2-way ANOVA): * (P ≤ 0.05) | MAPK pathway activation (in words) [11, 14]: significantly less effective than insulin or glargine, respectively, in activating the MAPK pathway; also recorded: significantly less potent at activating the MAPK pathway | Akt phosphorylation at Ser473 (in words) ([12]; L6 IR-A, 10 min, significant difference only at 0.1 nM (p* ≤ 0.05 to p** ≤ 0.01)): generally similar to their parent peptides | PI3K/Akt pathway activation (in words) [12, 14]: equal potency in activating the PI3K/Akt pathway | metabolic activity (in words) (metabolic activity): promotes equivalent metabolic activity | total receptor phosphorylation in kinase receptor activation assay (in words) (IR [13]): almost as potent as insulin in a kinase receptor activation assay | glucose uptake, significance of difference between insulin, cis-dicarba insulin and cis-dicarba glargine (NIH3T3-L1 adipocytes): ns
